# Data published in US8614217B2 (priority 2008, dated 2013).
# Test: log P(HCOOH) (HPLC/MS)
# Type: physicochemical
# Conditions: HCOOH (formic acid); read-out: log P(HCOOH)
row,SMILES,chromatographic logP
1,"O=C1c2ccccc2C(=O)N1OCc1cccc(N2C(=O)c3ccccc3C2=O)n1 [2-(6-{[(1,3-dioxo-1,3-dihydro-2H-isoindol-2-yl)oxy]methyl}pyridin-2-yl)-1H-isoindole-1,3(2H)-dione]",2.44
2,"Cn1nnnc1C(=NOCc1cccc(N2C(=O)c3ccccc3C2=O)n1)c1ccccc1 [2-{6-[({[(1-methyl-1H-tetrazol-5-yl)(phenyl)methylene]amino}oxy)methyl]pyridin-2-yl}-1H-isoindole-1,3(2H)-dione]",3.04
3,NOCc1cccc(N)n1 [6-[(aminooxy)methyl]pyridin-2-amine],< -0.23
4,Cn1nnnc1C(=NOCc1cccc(N)n1)c1ccccc1 [6-[({[(1-methyl-1H-tetrazol-5-yl)(phenyl)methylene]amino}oxy)methyl]pyridin-2-amine],1.14
5,"Cn1nnnc1/C(=N\OCc1cccc(NC(=O)OCCCCCl)n1)c1ccccc1 [Example 67, 4-chlorobutyl {6-[({[(Z)-(1-methyl-1H-tetrazol-5-yl)(phenyl)methylene]amino}oxy)methyl]pyridin-2-yl}carbamate]",3.67

# Same assay, conditions: HCOOH; read-out: log P(HCOOH)
row,SMILES,chromatographic logP
1,Cn1nnnc1C(=NOCc1cccc(N)n1)c1ccccc1 [6-[({[(1-methyl-1H-tetrazol-5-yl)(phenyl)methylene]amino}oxy)methyl]pyridin-2-amine],1.13

# Same assay, conditions: HPLC on reversed phase columns, EEC directive 79/831 Annex V.A8; pH 2.7, 0.1% formic acid in water / acetonitrile gradient
row,SMILES,log p
1,Cc1nnnn1C(=NOCc1csc(NC(=O)C2CCOCC2)n1)c1ccccc1 (mixture of isomers) [Example 73],2.49
2,Cc1nnnn1C(=NOCc1csc(NC(=O)COC2CC(C)CCC2C(C)C)n1)c1ccccc1 (mixture of isomers) [Example 86],5.48
3,Cn1nnnc1C(=NOCc1cccc(NC(=O)CCOc2ccccc2)n1)c1cccc(F)c1 [Example 10],3.64
4,C#CCCOC(=O)Nc1cccc(CON=C(c2cccc(F)c2)c2nnnn2C)n1 [Example 13],3.21
5,C#CCCOC(=O)Nc1cccc(CON=C(c2ccccc2)n2nnnc2C)n1 [Example 17],3.15
6,Cc1nnnn1C(=NOCc1cccc(NC(=O)OCCCCCl)n1)c1ccccc1 [Example 20],3.73
7,Cc1nnnn1C(=NOCc1cccc(NC(=O)OC2CCCCCC2)n1)c1ccccc1 [Example 21],4.71
8,C#CCCOC(=O)Nc1cccc(CON=C(c2cccc(F)c2)n2nnnc2C)n1 [Example 23],3.21
9,C#CCCCC(=O)Nc1cccc(CON=C(c2cccc(F)c2)n2nnnc2C)n1 [Example 35],3.15
10,Cc1nnnn1C(=NOCc1cccc(NC(=O)CC2CCCCC2)n1)c1ccccc1 [Example 40],4.12
11,Cc1nnnn1C(=NOCc1cccc(NC(=O)CC2CCCCC2)n1)c1cccc(F)c1 [Example 41],4.23
12,Cc1nnnn1C(=NOCc1cccc(NC(=O)CCC2CCCC2)n1)c1ccccc1 [Example 44],4.25
13,Cc1nnnn1C(=NOCc1cccc(NC(=O)CCC2CCCC2)n1)c1cccc(F)c1 [Example 45],4.33
14,Cc1nnnn1C(=NOCc1cccc(NC(=O)C(F)(F)Sc2ccccc2)n1)c1ccccc1 [Example 48],4.2
15,C#CCCCC(=O)Nc1cccc(CON=C(c2ccccc2)c2nnnn2C)n1 [Example 55],2.98
16,C=CCOC(=O)Nc1cccc(CON=C(c2ccccc2)c2nnnn2C)n1 [Example 56],3.21
17,C=CCCOC(=O)Nc1cccc(CON=C(c2ccccc2)c2nnnn2C)n1 [Example 57],3.51

# Same assay, conditions: HPLC on reversed phase columns, EEC directive 79/831 Annex V.A8; pH 2.7, 0.1% formic acid in water / acetonitrile gradient; read-out: log p
row,SMILES,chromatographic logP
1,C#CCCCC(=O)Nc1cccc(CON=C(c2ccccc2)n2nnnc2C)n1 [Example 34],3.04
2,"Cn1nnnc1/C(=N\OCc1cccc(NC(=O)OCCCCCl)n1)c1ccccc1 [Example 67, 4-chlorobutyl {6-[({[(Z)-(1-methyl-1H-tetrazol-5-yl)(phenyl)methylene]amino}oxy)methyl]pyridin-2-yl}carbamate]",3.67

# Same assay, conditions: HPLC on reversed phase columns, EEC directive 79/831 Annex V.A8; pH 2.7 with 0.1% formic acid in water and acetonitrile
row,SMILES,log p
1,CC(Oc1ccc(F)cc1)C(=O)Nc1cccc(CON=C(c2ccccc2)c2nnnn2C)n1 (mixture of isomers) [Example 262],3.79
2,C=CCCOC(=O)Nc1cccc(CON=C(c2ccccc2C)c2nnnn2C)n1 (mixture of isomers) [Example 315],3.65
3,C#CCCOC(=O)Nc1cccc(CON=C(c2ccccc2Cl)c2nnnn2C)n1 (mixture of isomers) [Example 372],3.21
4,Cn1nnnc1C(=NOCc1cccc(NC(=O)CCOc2ccccc2)n1)c1ccccc1Cl (mixture of isomers) [Example 373],3.63
